Reference: paper PMC6855144, “Examination of the Glycine Betaine-Dependent Methylotrophic Methanogenesis Pathway: Insights Into Anaerobic Quaternary Amine Methylotrophy” (Frontiers in Microbiology, 2019)

Target: T1, MV8460 (MtgB) (Methanolobus vulcani, UniProt A0A7Z8KPC2)
T1 construct: gene FKV42_08460
T1 sequence (A0A7Z8KPC2 1-475): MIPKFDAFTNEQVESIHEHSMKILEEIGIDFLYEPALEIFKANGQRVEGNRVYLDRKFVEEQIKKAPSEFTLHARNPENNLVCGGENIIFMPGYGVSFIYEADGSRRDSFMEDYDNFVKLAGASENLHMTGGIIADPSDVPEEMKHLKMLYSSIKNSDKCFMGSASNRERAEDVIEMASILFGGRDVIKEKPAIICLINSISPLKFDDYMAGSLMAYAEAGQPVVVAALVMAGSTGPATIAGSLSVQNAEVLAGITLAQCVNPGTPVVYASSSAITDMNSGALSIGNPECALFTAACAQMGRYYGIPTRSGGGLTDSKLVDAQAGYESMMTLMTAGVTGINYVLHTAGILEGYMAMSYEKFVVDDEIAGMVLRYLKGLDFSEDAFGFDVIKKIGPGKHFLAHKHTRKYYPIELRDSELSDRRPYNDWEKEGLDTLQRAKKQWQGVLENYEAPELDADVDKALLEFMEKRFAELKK
Test: UV-vis, methylation of free cob(I)alamin at […] nm
Type: biochemical
Details: methyl donor 50 mM; co-substrate cob(I)alamin; 37 °C; anoxic

C[N+](C)(C)CC(=O)[O-] [GB, glycine betaine]
UV-vis, methylation of free cob(I)alamin at 540 nm: We detected methylation of free cob(I)alamin by MV8460 using GB as the methyl donor
